Assay results as given in article PMC9343874, “Comparative Pharmacokinetics of Cinobufacini Capsule and Injection by UPLC-MS/MS” (Frontiers in Pharmacology, 2022).
Like-named read-outs stand apart in the source and are kept apart here.

How the values were obtained:
[1] = Pharmacokinetic study in rats after oral administration of cinobufacini capsule (UPLC-MS/MS of plasma); format: in vivo, rat; conditions: male, Sprague-Dawley, in vivo, rat plasma, mean ± SD, n = 6; for CL/F: read-out: CLz/F (converted); for MRT last: read-out: MRT0-t; for MRT inf: read-out: MRT0-∞; for half-life: read-out: T1/2z (converted); for Vd/F: read-out: Vz/F
Protocol: (§1) Male Sprague–Dawley rats (weighing 200–220 g) of SPF grade were offered by Sippr/BK laboratory Animal, Corp., Ltd. (Shanghai, China) and fed in the Laboratory Animal Center of the Shanghai University of Traditional Chinese Medicine. All the rats were kept under environmentally controlled conditions with constant temperature (22–24°C) and humidity (60–65%). The animal experiment program in the present research was approved by the Animal Committee of the Shanghai University of Traditional Chinese Medicine (PZSHUTCM210618012).
(§2) An Agilent 1290 liquid chromatographic system includes a G4220A quaternary pump, a G1326C column incubator, a G4226A automatic sampler, and a G1330B degasser. The column temperature was set to 35°C. A measure of 5 µL of samples were separated in an Agilent SB-C18 column (2.1 mm ×50 mm, 1.8 μm) and eluted at 0.3 ml/min, followed by gradient elution with water (0.1% V/V formic acid) (A) and acetonitrile (B) (0–1 min, 20%–20% B; 1–3.5 min, 20%–80% B; 4–4.1 min, 80%-20% B; 4.1–6 min, 20% B). The total run time was 6 minutes.
(§3) An Agilent 1290 Infinity series UPLC system was combined with an Agilent 6460 series triple quadrupole mass spectrometer (Agilent Technologies, Santa Clara, CA, United States) to quantify all 13 analytes in an ESI-positive ionization mode. Quantitative analysis was performed in an MRM mode. The mass spectrum conditions were as follows: capillary voltage, 4000V; drying gas (N2), gas flow rate: 10 L/min; sprayer, 30 psi; gas temperature 350°C; The delta EMV (+) 200 V; collision gas (N2); dwell time, 25 ms. Agilent’s MassHunter Workstation software was used for data collection, peak area calculation, and quantitative analysis.
(§4) A measure of 50 µL of the plasma sample was mixed with 10 µL of the internal standard solution (345 ng/ml) in a 1.5-ml centrifuge tube and vortexed for 5 min. The samples were extracted by 500 µL of ethyl acetate for 5 min and centrifuged at 4°C for 10 min (18000 rpm). All the supernatants were collected into another 1.5-ml centrifuge tube, dried under a gentle stream of nitrogen at 37°C, and then added with 50 µL of 80% methanol for resolution. The resolution samples were centrifuged at 4°C for 10 min (18000 rpm), and 5 µL supernatant was extracted and injected for analysis.
(§5) Twenty-four male Sprague–Dawley rats (weigh 200–220 g) were divided into four groups with six rats in each group randomly, including three capsule groups at three different doses and one injection group. In the instructions for cinobufacini capsule and injection, the clinical dosage for adults is 2 g per 70 kg orally and 20 ml per 70 kg intravenously, converting to rat doses of 180 mg/kg and 1.8 ml/kg, respectively.
(§6) In the pre-experiments, we compared cinobufacini capsule of 180 mg/kg (one-time clinical dose) and 900 mg/kg (five times of clinical dose) and Cinobufacini injection of 1.8 ml/kg, but concentrations of some compounds in plasma were too low and difficult to be quantified. […] The experimental rats were led to fast the night and were free to get access to water for 12 h before the pharmacokinetic study. After administration, blood samples (approximately 150 μL) of rats were collected via retro-orbital sinus into heparinized centrifuge tubes at 0.05, 0.083, 0.25, 0.5, 0.75, 1, 2, 4, 6, 8, and 10 h. After centrifugation at 5,000 rpm for 10 min, the plasma was transferred to 1.5-ml polypropylene tubes and stored at −80°C until UPLC-MS/MS analysis.
(§7) GraphPad Prism software (version 8.0.2) was used to draw the mean plasma concentration–time curves of all analytes. The pharmacokinetic parameters were calculated by DAS 3.2.8 software. Meanwhile, the pharmacokinetic data on rats were presented as mean ± standard deviation (SD). Differences of pharmacokinetic parameters between groups were analyzed by the t-test using SPSS software (version 26.0). Differences were considered significant statistically when the p-values were <0.05 and very significant statistically when the p-values were <0.01.

[2] = Pharmacokinetic study in rats after intravenous administration of cinobufacini injection (UPLC-MS/MS of plasma); format: in vivo, rat
Protocol: as §1, §2, §3, §4, §5, §6, §7

[3] = Stability of analytes in rat plasma QC samples under storage conditions; format: physicochemical; conditions: n = 6; for Stability during 24 h at 4°C, RE: post-treatment storage in autosampler; for −80°C for 30 days, RE / Three freeze–thaw cycles, RE: rat plasma; for −80°C for 30 days, RE: long-term; for Three freeze–thaw cycles, RE: −80°C to room temperature
Protocol: The stability of QC samples in six replicates at three concentrations (low, medium, and high levels) was analyzed under different storage conditions: the post-treatment stability was analyzed after storage in an autosampler (4°C) for 24 h. Freeze–thaw stability was investigated after three freeze–thaw cycles (−80°C to room temperature as one cycle). Long-term stability was assessed by analyzing QC samples kept at −80°C for 30 days. The concentrations of the analytes in the plasma samples and the QC samples were calculated by the calibration standard curve prepared each day. The stabilities of analytes were acceptable when the accuracy (RE, %) and precision (RSD, %) of all QC samples in all storage conditions were within ±15% compared to nominal concentrations.

[4] = oral cinobufacini capsule 0.9 g/kg (low)
[5] = oral cinobufacini capsule 1.8 g/kg (medium)
[6] = oral cinobufacini capsule 3.6 g/kg (high)
[7] = high QC level (249.58–250.28 ng/ml)
[8] = medium QC level (49.92–50.06 ng/ml)

SMILES | AUC(0-inf) [1, 4] | AUC(0-t) [1, 4] | Cmax [1, 4] | Tmax [1, 4] | CL/F [1, 4] | MRT last [1, 4] | MRT inf [1, 4] | half-life [1, 4] | Vd/F [1, 4] | AUC(0-inf) [1, 5] | AUC(0-t) [1, 5] | Cmax [1, 5] | Tmax [1, 5] | CL/F [1, 5] | MRT last [1, 5] | MRT inf [1, 5] | half-life [1, 5] | Vd/F [1, 5] | AUC(0-inf) [1, 6] | AUC(0-t) [1, 6] | other results
C[C@]12CC[C@H](O)C[C@H]1CC[C@@H]1[C@@H]2[C@H](O)C(=O)[C@]2(C)[C@@H](c3ccc(=O)oc3)CC[C@]12O [ABG, arenobufagin] | 15.5 ± 4.73 ng·h/mL | 15.5 ± 4.73 ng·h/mL | 13.8 ± 6.4 ng/mL | 27 ± 16.2 min | 109 mL/min/kg | 86.4 ± 34.8 min | 88.2 ± 36 min | 49.2 ± 39.6 min | 8.01 ± 5.68 L/kg | 45.9 ± 13.1 ng·h/mL | 44.1 ± 10.6 ng·h/mL | 36.7 ± 13.1 ng/mL | 19.2 ± 7.2 min | 71.2 mL/min/kg | 89.4 ± 61.8 min | 104 ± 77.4 min | 38.4 ± 9.6 min | 4.2 ± 1.25 L/kg | 87.6 ± 27.8 ng·h/mL | 87.3 ± 27.4 ng·h/mL | Cmax [1, 6]: 77.9 ± 24.2 ng/mL; Tmax [1, 6]: 19.2 ± 7.2 min; CL/F [1, 6]: 77.5 mL/min/kg; MRT last [1, 6]: 72 ± 15.6 min; MRT inf [1, 6]: 73.8 ± 18.6 min; half-life [1, 6]: 53.4 ± 38.4 min; Vd/F [1, 6]: 5.66 ± 3.45 L/kg; concentrations in most rat plasma samples relative to LLOQ ([2]; after intravenous administration of cinobufacini injection, pharmacokinetic parameters could not be calculated): far below the LLOQs; detection in rat plasma ([2]; cinobufacini injection group, intravenous): could be detected; Stability during 24 h at 4°C, RE [3, 7]: −4.1%; Stability during 24 h at 4°C, RE ([3]; low QC level (4.99–5.00 ng/ml)): 7.4%; Stability during 24 h at 4°C, RE [3, 8]: −5.3%; −80°C for 30 days, RE [3, 7]: 2.3%; −80°C for 30 days, RE ([3]; low QC level (4.99–5.00 ng/ml)): 7.1%; −80°C for 30 days, RE [3, 8]: 8.3%; Three freeze–thaw cycles, RE [3, 7]: 0.7%; Three freeze–thaw cycles, RE ([3]; low QC level (4.99–5.00 ng/ml)): 2.5%; Three freeze–thaw cycles, RE [3, 8]: 3.3%
C[C@]12CC[C@H]3[C@@H](CC[C@]4(O)C[C@@H](O)CC[C@]34C=O)[C@@]1(O)CC[C@@H]2c1ccc(=O)oc1 [HBG, hellebrigenin] | 4.21 ± 2.23 ng·h/mL | 3.97 ± 1.73 ng·h/mL | 2.47 ± 1.38 ng/mL | 56.4 ± 45 min | 237 mL/min/kg | 215 ± 97.8 min | 229 ± 119 min | 61.2 ± 36 min | 14.2 ± 3.88 L/kg | 13.8 ± 5.4 ng·h/mL | 13.7 ± 4.3 ng·h/mL | 8.36 ± 2.92 ng/mL | 40.8 ± 21 min | 110 mL/min/kg | 137 ± 75.6 min | 153 ± 91.8 min | 80.4 ± 65.4 min | 11.1 ± 5.04 L/kg | 31.1 ± 11.4 ng·h/mL | 31.1 ± 11.4 ng·h/mL | Cmax [1, 6]: 18.2 ± 5.84 ng/mL; Tmax [1, 6]: 23.4 ± 12 min; CL/F [1, 6]: 118 mL/min/kg; MRT last [1, 6]: 128 ± 49.8 min; MRT inf [1, 6]: 128 ± 49.2 min; half-life [1, 6]: 37.8 ± 6 min; Vd/F [1, 6]: 6.35 ± 2.55 L/kg; Stability during 24 h at 4°C, RE [3, 7]: 0.8%; Stability during 24 h at 4°C, RE ([3]; low QC level (4.99–5.00 ng/ml)): 10.2%; Stability during 24 h at 4°C, RE [3, 8]: −4.7%; −80°C for 30 days, RE [3, 7]: −1.3%; −80°C for 30 days, RE ([3]; low QC level (4.99–5.00 ng/ml)): −5.0%; −80°C for 30 days, RE [3, 8]: 8.9%; Three freeze–thaw cycles, RE [3, 7]: 1.5%; Three freeze–thaw cycles, RE ([3]; low QC level (4.99–5.00 ng/ml)): 9.3%; Three freeze–thaw cycles, RE [3, 8]: −2.1%
C[C@]12CC[C@H](O)C[C@@]1(O)CC[C@@H]1[C@@H]2CC[C@]2(C)[C@@H](c3ccc(=O)oc3)CC[C@]12O [TCG, telocinobufagin] | 24.5 ± 10.3 ng·h/mL | 24.5 ± 10.3 ng·h/mL | 35.2 ± 21 ng/mL | 21.6 ± 12 min | 128 mL/min/kg | 38.4 ± 3.6 min | 38.4 ± 3.6 min | 9.6 ± 0.6 min | 1.75 ± 0.6 L/kg | 89.9 ± 24.1 ng·h/mL | 89.7 ± 23.8 ng·h/mL | 109 ± 41.3 ng/mL | 17.4 ± 5.4 min | 66.2 mL/min/kg | 43.8 ± 6.6 min | 44.4 ± 6.6 min | 12.6 ± 6.6 min | 1.13 ± 0.37 L/kg | 217 ± 82.4 ng·h/mL | 217 ± 82.4 ng·h/mL | Cmax [1, 6]: 253 ± 83.8 ng/mL; Tmax [1, 6]: 19.2 ± 7.2 min; CL/F [1, 6]: 60.3 mL/min/kg; MRT last [1, 6]: 49.8 ± 7.8 min; MRT inf [1, 6]: 49.8 ± 7.8 min; half-life [1, 6]: 31.8 ± 1.2 min; Vd/F [1, 6]: 2.76 ± 1.67 L/kg; Stability during 24 h at 4°C, RE [3, 7]: −4.7%; Stability during 24 h at 4°C, RE ([3]; low QC level (4.99–5.00 ng/ml)): −0.3%; Stability during 24 h at 4°C, RE [3, 8]: −4.2%; −80°C for 30 days, RE [3, 7]: −2.1%; −80°C for 30 days, RE ([3]; low QC level (4.99–5.00 ng/ml)): 0.9%; −80°C for 30 days, RE [3, 8]: 3.8%; Three freeze–thaw cycles, RE [3, 7]: -6.6%; Three freeze–thaw cycles, RE ([3]; low QC level (4.99–5.00 ng/ml)): 5.8%; Three freeze–thaw cycles, RE [3, 8]: 0.0%
